The text below walks through data of ChEMBL document CHEMBL5331139, “First-in-Class Dual Targeting Compounds for the Management of Seizures in Glucose Transporter Type 1 Deficiency Syndrome” (J Med Chem, 2023).

Each structure is given as a SMILES string.

Among the targets are Carbonic anhydrase 1 (Homo sapiens, UniProt P00915); Carbonic anhydrase 2 (Homo sapiens, UniProt P00918); Carbonic anhydrase 4 (Homo sapiens, UniProt P22748); Carbonic anhydrase 7 (Homo sapiens, UniProt P43166); Carbonic anhydrase 12 (Homo sapiens, UniProt O43570).
Data set [1] addresses Carbonic anhydrase 5A, mitochondrial (Homo sapiens, UniProt P35218).
Description: Binding affinity to human recombinant carbonic anhydrase 5A assessed as inhibition constant incubated for 15 mins by phenol red based stopped-flow CO2 hydration assay
The target of data set [2] is Carbonic anhydrase 5B, mitochondrial (Homo sapiens, UniProt Q9Y2D0).
Description: Binding affinity to human recombinant carbonic anhydrase 5B assessed as inhibition constant incubated for 15 mins by phenol red based stopped-flow CO2 hydration assay
The nature of data set [3]: in vivo. As to conditions: C57BL/6, mouse, 300 mg/kg.
Description: Toxicity in MES induced C57BL/6 mouse model assessed as animal death at 300 mg/kg
The nature of data set [4]: in vivo. Particulars: C57BL/6, mouse, 200 mg/kg.
Description: Toxicity in MES induced C57BL/6 mouse model assessed as mortality at 200 mg/kg

Sequence of Carbonic anhydrase 5B, mitochondrial (Q9Y2D0 whole entry): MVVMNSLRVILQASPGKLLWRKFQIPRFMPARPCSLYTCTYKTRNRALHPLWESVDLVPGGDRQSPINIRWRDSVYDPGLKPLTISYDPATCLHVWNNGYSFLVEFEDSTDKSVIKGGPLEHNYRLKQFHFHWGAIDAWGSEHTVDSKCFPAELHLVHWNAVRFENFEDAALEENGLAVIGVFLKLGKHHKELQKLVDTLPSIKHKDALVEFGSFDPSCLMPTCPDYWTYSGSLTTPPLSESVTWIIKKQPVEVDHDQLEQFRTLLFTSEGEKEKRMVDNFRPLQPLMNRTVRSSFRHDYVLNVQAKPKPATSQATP
Sequence of Carbonic anhydrase 12 (O43570 whole entry): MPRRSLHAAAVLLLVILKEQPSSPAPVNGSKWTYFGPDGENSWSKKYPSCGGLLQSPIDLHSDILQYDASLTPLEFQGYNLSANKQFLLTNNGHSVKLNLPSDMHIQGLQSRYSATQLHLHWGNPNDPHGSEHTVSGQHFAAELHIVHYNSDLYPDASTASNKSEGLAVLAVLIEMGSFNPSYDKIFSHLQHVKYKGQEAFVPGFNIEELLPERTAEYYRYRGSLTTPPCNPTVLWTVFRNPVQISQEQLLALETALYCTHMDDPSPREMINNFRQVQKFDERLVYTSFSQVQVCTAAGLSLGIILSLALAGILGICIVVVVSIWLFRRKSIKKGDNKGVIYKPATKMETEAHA
Sequence of Carbonic anhydrase 7 (P43166 whole entry): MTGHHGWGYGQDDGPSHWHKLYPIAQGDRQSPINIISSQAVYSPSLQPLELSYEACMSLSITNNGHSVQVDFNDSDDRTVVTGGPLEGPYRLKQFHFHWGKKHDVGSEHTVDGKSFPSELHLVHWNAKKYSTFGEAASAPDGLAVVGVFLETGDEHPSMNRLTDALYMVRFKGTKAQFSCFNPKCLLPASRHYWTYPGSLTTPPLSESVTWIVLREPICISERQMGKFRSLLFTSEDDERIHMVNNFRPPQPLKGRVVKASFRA
Sequence of Carbonic anhydrase 4 (P22748 whole entry): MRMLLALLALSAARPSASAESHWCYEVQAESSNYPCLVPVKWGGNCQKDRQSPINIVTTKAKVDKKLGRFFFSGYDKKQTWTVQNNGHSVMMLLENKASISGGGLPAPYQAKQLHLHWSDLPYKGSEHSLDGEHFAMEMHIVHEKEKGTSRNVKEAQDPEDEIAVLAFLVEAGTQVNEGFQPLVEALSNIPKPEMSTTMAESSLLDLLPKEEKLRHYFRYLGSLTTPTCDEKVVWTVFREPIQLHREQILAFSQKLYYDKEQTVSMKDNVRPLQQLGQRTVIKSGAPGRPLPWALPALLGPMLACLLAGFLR
Sequence of Carbonic anhydrase 1 (P00915 whole entry): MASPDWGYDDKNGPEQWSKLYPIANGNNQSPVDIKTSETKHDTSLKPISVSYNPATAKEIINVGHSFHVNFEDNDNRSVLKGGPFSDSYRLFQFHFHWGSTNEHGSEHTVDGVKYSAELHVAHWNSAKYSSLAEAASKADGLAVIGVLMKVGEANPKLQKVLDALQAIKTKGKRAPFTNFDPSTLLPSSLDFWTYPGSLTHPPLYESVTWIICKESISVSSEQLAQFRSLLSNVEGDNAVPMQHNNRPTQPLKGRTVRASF
Sequence of Carbonic anhydrase 5A, mitochondrial (P35218 whole entry): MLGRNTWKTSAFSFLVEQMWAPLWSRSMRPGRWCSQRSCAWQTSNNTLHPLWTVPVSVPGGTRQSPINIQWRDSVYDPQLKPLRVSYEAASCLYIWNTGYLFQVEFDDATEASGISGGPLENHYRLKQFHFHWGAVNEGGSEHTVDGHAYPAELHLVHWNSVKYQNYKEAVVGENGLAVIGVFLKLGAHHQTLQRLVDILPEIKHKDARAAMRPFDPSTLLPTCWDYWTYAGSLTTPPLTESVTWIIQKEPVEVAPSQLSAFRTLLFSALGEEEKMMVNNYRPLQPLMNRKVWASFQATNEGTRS
Description for Carbonic anhydrase 12: Binding affinity to human recombinant carbonic anhydrase 12 assessed as inhibition constant incubated for 15 mins by phenol red based stopped-flow CO2 hydration assay
Description for Carbonic anhydrase 2: Binding affinity to human recombinant carbonic anhydrase 2 assessed as inhibition constant incubated for 15 mins by phenol red based stopped-flow CO2 hydration assay
Description for Carbonic anhydrase 4: Binding affinity to human recombinant carbonic anhydrase 4 assessed as inhibition constant incubated for 15 mins by phenol red based stopped-flow CO2 hydration assay
Description for Carbonic anhydrase 7: Binding affinity to human recombinant carbonic anhydrase 7 assessed as inhibition constant incubated for 15 mins by phenol red based stopped-flow CO2 hydration assay

As to `CC(=O)OC[C@H]1O[C@@H]([Se]c2ccc(NC(=O)c3ccc(S(N)(=O)=O)cc3)cc2)[C@H](OC(C)=O)[C@@H](OC(C)=O)[C@H]1OC(C)=O`, the Ki at Carbonic anhydrase 1 was 51.4 nM; on Carbonic anhydrase 2, 4 nM; on Carbonic anhydrase 4, 30.8 nM; in [1] it was 57.4 nM; in data set [2], 4 nM; on Carbonic anhydrase 7 it was 0.7 nM. Further, the inhibitory constant (Ki) at Carbonic anhydrase 12 is 5.6 nM.
Take `NS(=O)(=O)c1ccc(NC(=S)Nc2ccc([Se][C@@H]3O[C@H](CO)C(O)[C@H](O)[C@H]3O)cc2)cc1` (single isomer, unassigned; 16b): the inhibition constant (Ki) amounted to 41.5 nM at Carbonic anhydrase 1; 4.5 nM at Carbonic anhydrase 2; 77.7 nM on Carbonic anhydrase 4; 358 nM in data set [1]; 6.2 nM in data set [2]; 0.9 nM on Carbonic anhydrase 7. The affinity on Carbonic anhydrase 12, expressed as Ki, was 9.1 nM.
Turning to `CC(=O)OC[C@H]1O[C@@H]([Se]c2ccc(S(N)(=O)=O)cc2)[C@H](OC(C)=O)[C@@H](OC(C)=O)[C@@H]1OC(C)=O`, the Ki on Carbonic anhydrase 1 came out at 80.3 nM; on Carbonic anhydrase 2, 41.4 nM; at Carbonic anhydrase 4 it was 4120 nM; in data set [1], 596 nM; in data set [2], 707 nM; on Carbonic anhydrase 7 it was 14.6 nM. Further, the Ki on Carbonic anhydrase 12 worked out at 9440 nM. In “in vivo [3]”, this compound registered a mortality of 20%.
Consider `NS(=O)(=O)c1cc(C(=O)Nc2ccc([Se][C@@H]3O[C@H](CO)[C@H](O)[C@H](O)[C@H]3O)cc2)ccc1Cl`, for which the Ki was found to be 637 nM on Carbonic anhydrase 1; 14.8 nM on Carbonic anhydrase 2; 77.7 nM at Carbonic anhydrase 4; 215 nM in data set [1]; 21.9 nM in [2]; 29.7 nM on Carbonic anhydrase 7. On Carbonic anhydrase 12, this compound showed an inhibition constant (Ki) of 88.7 nM.
As to `CC(=O)OC[C@H]1O[C@@H]([Se]c2ccc(NC(=S)Nc3ccc(S(N)(=O)=O)cc3)cc2)[C@H](OC(C)=O)[C@@H](OC(C)=O)[C@H]1OC(C)=O`, the Ki was found to be 48.1 nM on Carbonic anhydrase 1; 6.6 nM on Carbonic anhydrase 2; 362 nM at Carbonic anhydrase 4; 482 nM in data set [1]; 4.7 nM in data set [2]; 2 nM on Carbonic anhydrase 7. Also, at Carbonic anhydrase 12, the Ki turned out to be 34.2 nM.
Consider `CC(=O)OC[C@H]1O[C@@H]([Se]c2ccc(S(N)(=O)=O)c(N)c2)[C@H](OC(C)=O)[C@@H](OC(C)=O)[C@@H]1OC(C)=O`, for which the Ki on Carbonic anhydrase 1 was greater than 10000 nM; at Carbonic anhydrase 2, 6290 nM; on Carbonic anhydrase 4 it was greater than 10000 nM; in [1], 2540 nM; in data set [2], greater than 10000 nM; at Carbonic anhydrase 7 it was greater than 10000 nM. This compound showed an inhibition constant Ki at Carbonic anhydrase 12 greater than 10000 nM.
On to `Nc1cc([Se][C@@H]2O[C@H](CO)[C@@H](O)[C@H](O)[C@H]2O)ccc1S(N)(=O)=O`, for which the Ki on Carbonic anhydrase 1 is 7680 nM; at Carbonic anhydrase 2, 4010 nM; at Carbonic anhydrase 4, greater than 10000 nM; in [1] it was 2300 nM; in data set [2] it was greater than 10000 nM; on Carbonic anhydrase 7, greater than 10000 nM. The Ki on Carbonic anhydrase 12 was 2560 nM.
Turning to `NS(=O)(=O)c1ccc(C(=O)Nc2ccc([Se][C@@H]3O[C@H](CO)[C@@H](O)[C@H](O)[C@H]3O)cc2)cc1`, the Ki was determined as 46.4 nM at Carbonic anhydrase 1; 6.1 nM on Carbonic anhydrase 2; 8.9 nM on Carbonic anhydrase 4; 45.1 nM in data set [1]; 3 nM in [2]; 0.9 nM at Carbonic anhydrase 7. Moreover, at Carbonic anhydrase 12, affinity was put at a Ki of 7.2 nM.
As for `CC(=O)OC[C@H]1O[C@@H]([Se]c2ccc(S(N)(=O)=O)cc2)[C@H](OC(C)=O)[C@@H](OC(C)=O)[C@H]1OC(C)=O`, the inhibition constant (Ki) was 95.8 nM on Carbonic anhydrase 1; 4.1 nM on Carbonic anhydrase 2; 344 nM at Carbonic anhydrase 4; 87.2 nM in data set [1]; 6.6 nM in data set [2]; 0.5 nM at Carbonic anhydrase 7. For the same compound, the Ki at Carbonic anhydrase 12 stood at 804 nM.
Turning to `CC(=O)OC[C@H]1O[C@@H]([Se]c2ccc(NC(=O)c3ccc(Cl)c(S(N)(=O)=O)c3)cc2)[C@H](OC(C)=O)[C@@H](OC(C)=O)[C@@H]1OC(C)=O`, the inhibition constant (Ki) on Carbonic anhydrase 1 was greater than 10000 nM; at Carbonic anhydrase 2, 214 nM; on Carbonic anhydrase 4 it was 1570 nM; in [1], 348 nM; in [2], 40.9 nM; on Carbonic anhydrase 7 it was 87.3 nM. The compound further gave an inhibition constant Ki on Carbonic anhydrase 12 greater than 10000 nM.
As for `NS(=O)(=O)c1ccc(C(=O)Nc2ccc([Se][C@@H]3O[C@H](CO)[C@H](O)[C@H](O)[C@H]3O)cc2)cc1`, the inhibition constant (Ki) was found to be 48 nM at Carbonic anhydrase 1; 1.7 nM on Carbonic anhydrase 2; 348 nM on Carbonic anhydrase 4; 120 nM in data set [1]; 88 nM in data set [2]; 9.6 nM on Carbonic anhydrase 7. The same compound showed a Ki at Carbonic anhydrase 12 of 90.5 nM.
Consider `CC(=O)OC[C@H]1O[C@@H]([Se]c2ccc(NC(=S)Nc3ccc(S(N)(=O)=O)cc3)cc2)[C@H](OC(C)=O)[C@@H](OC(C)=O)[C@@H]1OC(C)=O`, for which the inhibition constant Ki at Carbonic anhydrase 1 was 53.1 nM; at Carbonic anhydrase 2 it was 6.3 nM; at Carbonic anhydrase 4, 555 nM; in data set [1], 254 nM; in [2], 8.9 nM; on Carbonic anhydrase 7 it was 1.8 nM. The compound also yielded an inhibitory constant (Ki) on Carbonic anhydrase 12 of 55.8 nM.
Take `CC(=O)OC[C@H]1O[C@@H]([Se]c2ccc(NC(=O)c3ccc(S(N)(=O)=O)cc3)cc2)[C@H](OC(C)=O)[C@@H](OC(C)=O)[C@@H]1OC(C)=O`: the inhibitory constant (Ki) on Carbonic anhydrase 1 turned out to be 85.2 nM; on Carbonic anhydrase 2, 5.1 nM; on Carbonic anhydrase 4, 378 nM; in [1], 90.6 nM; in [2], 8.7 nM; on Carbonic anhydrase 7, 2.8 nM. The same compound came in with a Ki at Carbonic anhydrase 12 of 9.4 nM.
Regarding `CC(=O)O[C@H]1[C@@H](OC(C)=O)[C@@H](CO)O[C@@H]([Se]c2ccc(S(N)(=O)=O)cc2)[C@@H]1OC(C)=O`, the Ki at Carbonic anhydrase 1 stood at 86.2 nM; on Carbonic anhydrase 2 it was 17.2 nM; on Carbonic anhydrase 4 it was 146 nM; in data set [1] it was 96.8 nM; in [2], 2.6 nM; on Carbonic anhydrase 7, 0.8 nM. The compound further had a Ki at Carbonic anhydrase 12 of 42.3 nM.
On to `CC(=O)O[C@@H]1[C@@H](OC(C)=O)[C@H]([Se]c2ccc(S(N)(=O)=O)cc2)O[C@H](CO)[C@H]1OC(C)=O`, for which the inhibitory constant (Ki) on Carbonic anhydrase 1 was determined as 78.4 nM; on Carbonic anhydrase 2 it was 3.7 nM; on Carbonic anhydrase 4 it was 67.1 nM; in data set [1], 736 nM; in data set [2], 5.5 nM; on Carbonic anhydrase 7, 4.1 nM. The Ki at Carbonic anhydrase 12 worked out at 5.9 nM.
Turning to `NS(=O)(=O)c1ccc(S(=O)(=O)[C@@H]2O[C@H](CO)[C@@H](O)[C@H](O)[C@H]2O)cc1`, the values for the inhibition constant (Ki) (in data set [2]; at Carbonic anhydrase 7) were 4.2 nM and 2.2 nM, respectively.
In the case of `NS(=O)(=O)c1ccc([Se][C@@H]2O[C@H](CO)[C@@H](O)[C@H](O)[C@H]2O)cc1`, the Ki at Carbonic anhydrase 1 was found to be 541 nM; at Carbonic anhydrase 2, 13.8 nM; at Carbonic anhydrase 4, 647 nM; in data set [1] it was 325 nM; in data set [2], 87.3 nM; on Carbonic anhydrase 7, 263 nM. On Carbonic anhydrase 12, this compound gave an inhibition constant (Ki) of 589 nM.
As to `CC(=O)OC[C@H]1O[C@@H]([Se]c2ccc(S(N)(=O)=O)c(N)c2)[C@H](OC(C)=O)[C@@H](OC(C)=O)[C@H]1OC(C)=O`, the Ki on Carbonic anhydrase 1 is 9600 nM; on Carbonic anhydrase 2, 6320 nM; at Carbonic anhydrase 4, greater than 10000 nM; in data set [1], 6570 nM; in data set [2], 406 nM; on Carbonic anhydrase 7, greater than 10000 nM. Also, the inhibition constant Ki on Carbonic anhydrase 12 is greater than 10000 nM.
As to `NS(=O)(=O)c1ccc([Se][C@@H]2O[C@H](CO)[C@H](O)[C@H](O)[C@H]2O)cc1`, the inhibitory constant (Ki) turned out to be 647 nM on Carbonic anhydrase 1; 53.7 nM at Carbonic anhydrase 2; 580 nM on Carbonic anhydrase 4; 427 nM in data set [1]; 8.7 nM in [2]; 30.3 nM on Carbonic anhydrase 7. Besides, at Carbonic anhydrase 12, the inhibition constant Ki turned out to be 82.4 nM.
`NS(=O)(=O)c1ccc(NC(=S)Nc2ccc([Se][C@@H]3O[C@H](CO)C(O)[C@H](O)[C@H]3O)cc2)cc1` (single isomer, unassigned; 16a): the inhibition constant Ki came to 71.4 nM on Carbonic anhydrase 1; 5.2 nM at Carbonic anhydrase 2; 283 nM at Carbonic anhydrase 4; 70.5 nM in [1]; 7.6 nM in [2]; 4.4 nM at Carbonic anhydrase 7. This compound yielded a Ki at Carbonic anhydrase 12 of 19.8 nM. This compound also came in with a mortality in “in vivo [4]” of 30%.
For the compound `CC(=O)O[C@H]1[C@@H](OC(C)=O)[C@@H](CO)O[C@@H]([Se]c2ccc(S(N)(=O)=O)c(N)c2)[C@@H]1OC(C)=O`, the inhibition constant (Ki) is 6820 nM on Carbonic anhydrase 1; 6660 nM at Carbonic anhydrase 2; 7280 nM on Carbonic anhydrase 4; 236 nM in data set [1]; 172 nM in [2]; greater than 10000 nM on Carbonic anhydrase 7. Also, the inhibitory constant (Ki) on Carbonic anhydrase 12 is greater than 10000 nM.
